# How the values were obtained:
# [1] = target: T1, OsSNAT1 (rice recombinant SNAT1) (Oryza sativa, UniProt Q5KQI6); test: HPLC-fluorescence of N-acetylserotonin formed; type: biochemical
# T1 construct: N-terminal 83 residues deleted; E. coli, plasmid pET300-Δ83SNAT1; purified recombinant
# [2] = target: T2, OsSNAT2 (rice recombinant SNAT2) (Oryza sativa, UniProt Q6Z1Y6); test: HPLC-fluorescence of N-acetylserotonin formed; type: biochemical
# T2 construct: N-terminal 34 residues deleted; purified recombinant
# T2 sequence (Q6Z1Y6 35-200): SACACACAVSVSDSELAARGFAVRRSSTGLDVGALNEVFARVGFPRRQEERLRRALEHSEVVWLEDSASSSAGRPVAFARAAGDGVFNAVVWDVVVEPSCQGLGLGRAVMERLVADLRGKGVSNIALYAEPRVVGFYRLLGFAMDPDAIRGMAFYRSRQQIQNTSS
# T1 sequence (Q5KQI6 84-254): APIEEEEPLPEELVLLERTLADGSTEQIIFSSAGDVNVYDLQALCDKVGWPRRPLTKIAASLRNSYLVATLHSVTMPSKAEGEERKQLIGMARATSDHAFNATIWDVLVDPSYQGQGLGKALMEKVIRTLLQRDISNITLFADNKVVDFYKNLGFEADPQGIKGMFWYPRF
compound,measurement,setting,value
CCCCCCCc1ccc(CCc2cccc(O)c2C(=O)O)cc1 [MG149],inhibition at 50 µM,[1],80%
same,inhibition at 100 µM,[2],28%

# — paper PMC8145546, “Inhibition of Rice Serotonin N-Acetyltransferases by MG149 Decreased Melatonin Synthesis in Rice Seedlings” (Biomolecules, 2021)
